The source of these data is publication PMC7464559, “Synthesis, Optimization, Antifungal Activity, Selectivity, and CYP51 Binding of New 2-Aryl-3-azolyl-1-indolyl-propan-2-ols” (Pharmaceuticals, 2020).

Values after ≈ are worked out from the molar mass of the structure shown.

The nature of one series: MRC5 toxicity assay. It counts as cell-based, human. To be noted: human, MRC-5 human fetal lung fibroblast cells, MRC-5 cells, 96-h incubation, mean of triplicate; read-out: Cytotoxicity IC50 on MRC-5 cells. In a few lines:
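MRC5 fibroblasts in RPMI 1640 with 10% FBS were exposed to compounds at 100, 10 and 1 µM in triplicate for 96 h. Viability was read by Uptiblue fluorescence after a 4-h dye incubation. IC50 is the mean of triplicates, and toxicity index = MRC5 IC50 / geometric mean MIC against Candida spp.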

For series [1], the target named is T1, retinoic acid 4-hydroxylase (CYP26A1) (Homo sapiens, UniProt O43174).
T1 construct: endogenous in cells; host or cells: MCF-7 human breast cancer cells
T1 sequence (O43174 1-497): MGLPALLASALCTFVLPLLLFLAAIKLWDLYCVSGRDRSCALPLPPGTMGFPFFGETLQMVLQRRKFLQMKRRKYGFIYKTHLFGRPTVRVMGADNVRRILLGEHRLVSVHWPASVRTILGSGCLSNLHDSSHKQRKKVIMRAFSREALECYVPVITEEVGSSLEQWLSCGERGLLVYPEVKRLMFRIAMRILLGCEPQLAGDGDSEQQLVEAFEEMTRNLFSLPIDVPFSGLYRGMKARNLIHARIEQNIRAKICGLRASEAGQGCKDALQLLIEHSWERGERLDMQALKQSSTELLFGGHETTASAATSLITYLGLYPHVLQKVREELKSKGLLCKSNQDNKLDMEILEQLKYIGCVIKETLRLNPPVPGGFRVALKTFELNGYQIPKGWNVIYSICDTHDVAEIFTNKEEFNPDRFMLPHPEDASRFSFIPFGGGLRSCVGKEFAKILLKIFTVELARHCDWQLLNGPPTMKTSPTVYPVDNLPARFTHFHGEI
In words: MCF-7 cellular assay for inhibition of metabolism of all-trans retinoic acid. To be noted: mean (±5%) of two experiments. The class given is cell-based.
Protocol: The HPLC system was equipped with a high-pressure pump (Milton–Roy pump, Stone, UK), injector with a 50 μL loop connected to a beta-RAM radioactivity detector, connected to a Compaq™ computer running Laura® data acquisition and analysis software. This enabled online detection and quantification of radioactive peaks. The 10 μM C18 μBondapak™ 3.9 × 300 mm HPLC column (Waters, UK) was used for the all-trans retinoic acid metabolism studies. The HPLC column operating at an ambient temperature was used to separate the metabolites, which were eluted with acetonitrile/1% ammonium acetate in water/acetic acid (75:25:0.1, v/v/v) at a flow rate of 1.9 mL/min. The Ecoscint™ was used as the flow scintillation fluid.
The separated [^3H]-metabolites were quantitatively calculated from the areas under the curves.

In the next series the test system is C. krusei. In words: Anti-Candida in vitro assay, C. krusei strains. It counts as cell-based. To be noted: Pichia kudriavzevii; span over the C. krusei strains tested. As to the method:
Test fungal strains were obtained from the American Type Culture Collection (ATCC) or were clinical isolates from the Laboratory of Parasitology and Medical Mycology, Centre Hospitalier Universitaire (CHU) of Nantes. The strains were maintained on Sabouraud agar slants and were subcultured 24 h before used. The activity of the target compounds 8a–g and 11a–m was determined by the method previously described. Briefly, molecules were diluted in RPMI 1640 medium supplemented with 0.165 M morpholinopropanesulphonic acid (Sigma-Aldrich, Saint-Quentin Fallavier, France), 2% glucose, and antibiotics. Candida suspensions were prepared in RPMI 1640 medium (Sigma-Aldrich, Saint-Quentin Fallavier, France) adjusted to give a final concentration of 10^3 cells/mL, and a 96-well microplate (Nunc, D. Dutscher, Brumath, France) was seeded with 100 µL. Each concentration of molecules (100 µL) to be tested was added (in triplicate) and plates were incubated at 37 °C for 24 h. The cellular viability was evaluated on the Fluorolite 1000 (Dynatech, France) with an excitation at 550 nm and an emission at 590 nm after a 4 h incubation with 10 µL of Alamar Blue®. […] MIC was expressed as the mean of the triplicate values. KTC and FLC were used as standards.

The test system of series [2] is human fetal lung fibroblast (MRC-5) cells. Also noted: method as in PMID 31899979. To be noted: previously determined ref 28, read-out: Cytotoxicity IC50 on MRC-5 cells; cited from earlier work.

For the molecule `O[C@@](Cn1cncn1)(Cn1ccc2ccccc21)c1ccc(Cl)cc1Cl` [(+)-(R)-8g], the IC50 at 96 h in “MRC5 toxicity assay” stood at 32 µM. In series [1], the 50% inhibitory concentration (IC50) was 34 µM.
With `O[C@](Cn1cncn1)(Cn1ccc2ccccc21)c1ccc(Cl)cc1Cl` [(−)-(S)-8g], the concentration for half-maximal inhibition (IC50) at 96 h in “MRC5 toxicity assay” was found to be 30 µM. For the same molecule, in series [1], the half-maximal inhibitory concentration (IC50) worked out at 18 µM. The MIC in the series on C. krusei lay in the range of 0.039 to 0.167 µg/mL (≈ 0.101 to 0.431 µM).
Regarding `OC(Cn1cncn1)(Cn1ccc2ccccc21)c1ccc(Cl)cc1Cl` (stereo not shown) [Compound 8g, 2-(2,4-Dichlorophenyl)-3-(1H-indol-1-yl)-1-(1H-1,2,4-triazol-1-yl)-propan-2-ol], the melting point was in the range of 161 to 162 °C. In addition, the concentration for half-maximal inhibition (IC50) in series [2] is 35 µM.

The term IC50 denotes the concentration that inhibits the measured activity by half. A word on the MIC: it is the lowest concentration found to suppress growth. Broadly, the melting point is the temperature of the solid-liquid transition.
